Source: patent US10363231B2, “Compounds and methods of treating ocular disorders” (CASE WESTERN RESERVE UNIVERSITY, priority 2014, dated 2019)

How the values were obtained:
[1] = Analysis of retinoid composition in mouse tissues: amide forms in liver by HPLC; type: in vivo, mice; conditions: oral gavage; for Protection by amide in liver: 4-week-old Abca4−/−Rdh8−/− mice, dark 24 h, liver extracts by HPLC
Experimental: (§1) Abca4^−/−Rdh8^−/− double knockout mice were generated as previously described. Mice were housed in the animal facility at the School of Medicine, Case Western Reserve University, where they were maintained under either complete darkness or in a 12-h light (˜300 lux) and 12-h dark cycle. All tested primary amines were suspended in 100 μl of soybean oil with less than 10% (v/v) DMSO and were administered by oral gavage with a 22-gauge feeding needle. Experimental manipulations in the dark were done under dim red light transmitted through a Kodak No. 1 safelight filter (transmittance >560 nm). All animal procedures and experiments were approved by the Case Western Reserve University Animal Care Committees and conformed to recommendations of the American Veterinary Medical Association Panel on Euthanasia and the Association of Research for Vision and Ophthalmology.
Two mg of primary amines were administered by oral gavage to 4-week-old Abca4^−/−Rdh8^−/− mice, which then were kept in the dark for 24 h. Then mice were euthanized, and their livers were homogenized in 1 ml of 10 mM sodium phosphate buffer, pH 7.4, containing 50% methanol (v/v). The resulting mixture was extracted with 4 ml of hexanes. Extracts were dried in vacuo, and reconstituted in 300 μl of hexanes. 100 μl of this solution was analyzed by HPLC as described above for the LRAT activity assay.
(§2) For practical reasons, only eight of these leading compounds (QEA-B-001-NH2, B-002-NH2, C-001-NH2, C-003-NH2, C006-NH2, E-002-NH2, TEA-B-002-NH2, and C00-2-NH2) along with retinylamine as a control were selected for further testing in Abca4^−/−Rdh8^−/− mice, an animal model for light-induced retinal degeneration (Table 2). Additionally, two novel amines with moderate inhibition of RPE65 (QEA-A-006-NH2 and QEA-B-003-NI 12) and one with strong inhibition (QEA-A-005-NH2) were added to the first test group for comparison. Mice were gavaged with 1 mg of a test compound and then kept in the dark for 24 h prior to being exposed to bright light (˜10,000 lux) for 1 h. Retinal damage was assessed with OCT that measured the thickness of the outer nuclear layer and by quantification of tissue 11-cis retinal levels. An example is shown for imaging results in FIG. 4A and for 11-cis-retinal quantification in FIG. 4B. Additionally, extracts of livers obtained from treated mice were analyzed by HPLC to estimate the amounts of corresponding amides (FIG. 4C).

Abca4^−/−Rdh8^−/− mice = experiment: Toxicity in treated Abca4−/−Rdh8−/− mice (Table 2); type: in vivo; conditions: 4-week-old Abca4−/−Rdh8−/− mice, oral gavage
Experimental: as §1, §2

LRAT = molecular target: T1, LRAT (Bos taurus, UniProt Q9BGL2); experiment: LRAT activity assay with bovine RPE microsomes (esterification of the corresponding primary alcohols); type: biochemical; conditions: for LRAT Substrate: percentage of the corresponding primary alcohol esterified by LRAT in 1 h at 37° C, 10 μM, RPE microsomes
T1 construct: incubated with RPF microsomes that served as a source of LRAT enzymatic activity; from tissue; host or cells: bovine retinal pigment epithelium (RPE) microsomes
T1 sequence (Q9BGL2 1-230): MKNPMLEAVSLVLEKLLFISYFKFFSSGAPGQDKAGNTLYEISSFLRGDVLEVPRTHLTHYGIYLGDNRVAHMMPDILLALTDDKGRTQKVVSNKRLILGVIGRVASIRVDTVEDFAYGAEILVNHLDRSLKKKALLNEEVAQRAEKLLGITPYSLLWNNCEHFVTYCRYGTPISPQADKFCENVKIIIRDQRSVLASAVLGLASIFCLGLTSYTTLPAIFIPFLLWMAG
Experimental: Bovine RPE microsomes were isolated from RPE homogenates by differential centrifugation as previously described. The resulting microsomal precipitate was resuspended in 10 mM Bis-Tris propane/HCl buffer, pH 7.4, to achieve a total protein concentration of […]. Then the mixture was placed in a quartz cuvette and irradiated for 6 min at 4° C. with a ChromatoUVE transilluminator (model TM-15; UVP) to eliminate residual retinoids. After irradiation, DTT was added to the RPE microsomal mixture to achieve a final concentration of 5 mM.
Two μl of a synthesized primary alcohol or amine dissolved in DMF (final concentration 10 μM) and 2 μl of 1,2-diheptanoyl-sn-glicerol-3-phosphocholine (water, final concentration 1 mM) were added to 200 μl of 10 mM Bis-Tris propane/HCl buffer, pH 7.4, containing 150 μg of RPE microsomes and 1% (v/w) BSA. The resulting mixture was incubated at 37° C. for 1 h. The reaction was quenched by adding 300 μl of methanol. Most reaction products were extracted with 300 μl of hexanes, except for products from the QEA-C-006 and QEA-G groups which were extracted by adding 300 μl of ethyl acetate and 300 μl of water.
Reaction products were separated and quantified by normal phase HPLC (Agilent Sil 5 μm, 4.6 mm×250 mm) in stepwise gradient of ethyl acetate in hexanes (0-15 min, 10%; 20-30 min, 30%) at a flow rate of 1.4 ml·min^−1.
The properties of retinoid derivatives were examined by two standard enzymatic tests, the […] and retinoid isomerization assays. To identify substrates of LRAT, aldehydes were reduced by sodium borohydrate to their corresponding primary alcohols that then were directly used in the esterification assay (FIG. 2B).
The alcohols were incubated with RPF microsomes that served as a source of LRAT enzymatic activity. Products of the enzymatic reaction as well as the remaining substrates were extracted with organic solvents and analyzed by HPLC. The ratio between a substrate and its esterified form was used to measure enzymatic activity efficiency, based on equivalent UV absorption of the substrate and product at their specific UV maxim wavelengths. Compounds classified as ‘good’ LRAT substrates converted at least 50% of their available alcohol substrates into corresponding esters under these experimental conditions, whereas marginal LRAT substrates were converted at less than 5%. Alcohols with a 5-50% conversion ratio were classified as weak substrates. Among 35 tested compounds, 23 were categorized as good and 9 as weak substrates; 3 compounds were not esterified by LRAT (Table 1 and FIG. 2C). […] Moreover, breaking double bond conjugation along the polyene chain or deletion of a C9 and/or a C13 methyl group also was allowed.

Row | SMILES | Protection by amide in liver [1] | Toxicity (Abca4^−/−Rdh8^−/− mice) | LRAT Substrate (LRAT) [%] | amidation in vivo (accumulation of amide forms in mouse liver) ([1]; liver HPLC) | LRAT substrate class (LRAT; conversion of the alcohol to ester)
1 | CC1=C(/C=C/C(C)=C/C=C/C(C)=C/CN)C(C)(C)CCC1 [QEA-A-001-NH2, retinylamine] | Strong | None | 100 | – | –
2 | CC(/C=C/C=C(/C=C/C1=CCCCC1)C(C)(C)C)=C\CN [QEA-B-001-NH2] | Strong | Yes | 80 | efficiently converted into amides | good (Compounds classified as ‘good’ LRAT substrates converted at least 50% of their available alcohol substrates into corresponding esters)
